Assay results: US11414374B2, “Crystalline forms of vilanterol trifenatate and processes for their preparation” (Hovione Scientia Limited, priority 2017, dated 2022)
≈ marks a conversion by molar mass, not a printed value. Entries after “also recorded” stand apart in the source; their conditions may differ. Like-named read-outs stand apart in the source and are kept apart here.

Experiments:
Assay type in all cases: physicochemical
[1] = Visual solubility in differing solvents (European Pharmacopeia 6.0 section 5.11); settings: for solubility at 15 min: organic solvent or mixture, thermodynamic from solid; for visual solubility in water: water at 75° C.
Description: Visual solubility of certain forms (compounds) in differing solvents was assessed according to the procedure described in the European Pharmacopeia 6.0 section 5.11. p. The compound was shaken vigorously for 1 min and placed in a constant temperature device for 15 min at 25.0±0.5° C. If the compound was not completely dissolved, the shaking was repeated for 1 min and the tube placed in a constant temperature device for 15 min. 50 mg of compound was weighed in a stoppered tube, 0.05 mL of the solvent added and the Dissolving Procedure (see above) followed. If the compound was completely dissolved, it is very soluble. If the compound was not completely dissolved, a further 0.45 mL of the solvent was added and the Dissolving Procedure (see above) followed. […] If the compound was still not completely dissolved, still further 1.0 mL of the solvent was added and the Dissolving Procedure (see above) followed. If the compound was completely dissolved, it is soluble. If the compound was still not completely dissolved, another 3.5 mL of the solvent was added and the Dissolving Procedure (see above) followed. […] If the compound was still not completely dissolved, the compound is slightly soluble or very slightly soluble. In this case, and the suspension was heated up to the boiling point (max 80° C.) under stirring to verify the solubility at high temperature. The hot solution was afterwards cooled to room temperature to observe whether the compound precipitates. If the compound at room temperature was completely dissolved, it is soluble at high temperature. [table]

[2] = Storage stability of exposed powder at 25° C. and 60% RH for seven days, compared by XRPD; settings: 60% RH and 25° C. for 7 days, exposed powder
Description: Approximately 30 mg of exposed powder of comparative form 1 and new forms II and III, respectively, were stored at 25′C and 60% RH for seven days. Each powder was then analyzed by XRPD and its diffraction pattern was compared with that of untreated sample.

[3] = Micronization in fluid energy jet mill: particle size distribution and XRPD of product; settings: for XRPD of micronized product versus starting material: after fluid energy jet milling
Source text: Vilanterol trifenatate form II is fed to a fluid energy jet mill at 10-100 g/h, operated with N2 at a pressure of 1 to 8 bar for the venturi and a pressure of 1 to 8 bar for the ring.

[4] = Dynamic vapor sorption (DVS) analysis / hygroscopicity (EP 7.0 classification); settings: for hygroscopicity classification according to the European Pharmacopoeia (EP, version 7.0) / mass increase by dynamic vapor sorption analysis (hygroscopicity): 80% RH and 25° C.; for mass increase by dynamic vapor sorption analysis (hygroscopicity): first sorption cycle, relative to 40% RH; for stability / XRPD pattern after DVS analysis: compared with untreated sample; for Change In Mass (%) Desorption / Change In Mass (%) Hysteresis / Change In Mass (%) Sorption: DVS, 25° C.
Description: The hygroscopicity value is directly obtained from the sorption row at 80% RH, cycle 1.
Hygroscopicity of a sample of each of new form II and comparative form I was determined using the protocol provided below in conditions of 80% RH and 25° C.
The sample was subjected to DVS measuring using SMS-DVS intrinsic. The kinetic moisture sorption measurement was performed at 25° C. and in a RH % range described in the following: • From 40% RH to 90% RH • Form 90% RH to 0% RH • From 0% RH to 90% RH • From 90% RH to 0% RH
The sample was analyzed by XRPD after the analysis.
The hygroscopicity was calculated using the following equation: % Weight Change=[(W2−W1)/W1]*100 W1: weight of sample at the start of the experiment (25° C. and 40% RH) W2: weight of sample at 25° C. and 80% RH in the first absorption cycle

[5] = TGA / TGA-EGA thermogravimetric analysis with evolved gas analysis; settings: for EGA: evolved solvent identified; for TGA overall weight loss: overall loss of the named solvent(s)
Description: The analysis was carried out using the Mettler Toledo TGA/DSC1. The sample was weighed in an aluminum pan hermetically sealed with an aluminum pierced cover. The analysis was performed heating the sample from 25° C. to 320° C. at 10° C./min. TGA-FTIR coupled with Thermo Nicoled is 10 spectometer. The analysis was carried out using the mettler toledo TGA/DSC1. The sample was weighed in an aluminum pan hermetically sealed with an aluminum pierced cover. The analysis was performed heating the sample from 25° C. to 320° C. at 10° C./min. The evolved gas is compared with ft-ir spectra database for identification.

[6] = DSC - differential scanning calorimetry; settings: for DSC (onset) endo. degradation: endothermic event: degradation; for DSC (onset) endo. melting: endothermic event: melting; for DSC (onset) endo. solvent loss: endothermic event: solvent loss
Description: The analysis was carried out using a DSC Q200 TA instruments equipped with a refrigerator cooling system (RCS40) and autosampler. The sample was weighed in an aluminum hermetic pan with pinhole. The analysis was performed heating the sample from 25° C. to 350° C. at 10° C./min.

[7] = Stability test (exposed sample 16 h), form by XRPD; settings: resulting form
[8] = Stability test (sealed vial 18 h), form by XRPD; settings: resulting form

OCc1cc([C@@H](O)CNCCCCCCOCCOCc2c(Cl)cccc2Cl)ccc1O [form I, 4-((1R)-2-((6-(2-((2,6-Dichlorophenyl)methoxy)ethoxy)hexyl)amino)-1-hydroxyethyl)-2-(hydroxymethyl)phenol triphenylacetate, reference compound]
visual solubility in 1,4-dioxane ([1]; 1,4-dioxane at 25° C.): freely soluble (a further 0.45 mL of the solvent was added and the Dissolving Procedure (see above) followed. If the compound was completely dissolved, it is freely soluble.) | solubility at 15 min ([1]; ethanol, 25 °C, ethanol at 25° C., read-out: visual solubility in ethanol): 10 to 33 mg/mL (≈ 20.6 to 67.8 mM) | solubility at 15 min ([1]; methanol, 25 °C, methanol at 25° C., read-out: visual solubility in methanol): 33 to 100 mg/mL (≈ 67.8 to 206 mM) | visual solubility in water [1]: insoluble | modifications in XRPD pattern after storage (structural stability) [2]: No significant modifications in XRPD pattern | XRPD of micronized product versus starting material [3]: identical to that of the starting material | particle size distribution Dv50 after micronization ([3]; fluid energy jet mill, N2): 4.2 μm | particle size distribution Dv90 after micronization ([3]; fluid energy jet mill, N2): 9.6 μm | hygroscopicity classification according to the European Pharmacopoeia (EP, version 7.0) [4]: non-hygroscopic | mass increase by dynamic vapor sorption analysis (hygroscopicity) [4]: 0.19% | stability / XRPD pattern after DVS analysis [4]: showed stability after DVS analysis

OCc1cc([C@@H](O)CNCCCCCCOCCOCc2c(Cl)cccc2Cl)ccc1O [form II, vilanterol trifenatate]
solubility at 15 min ([1]; ethanol, 50 °C, ethanol at 50° C., read-out: visual solubility in ethanol): 10 to 33 mg/mL (≈ 20.6 to 67.8 mM) | visual solubility in water [1]: insoluble | modifications in XRPD pattern after storage (structural stability) [2]: No significant modifications in XRPD pattern | XRPD of micronized product versus starting material [3]: identical to the one of the starting material | particle size distribution Dv90 after micronization ([3]; fluid energy jet mill, N2): below 10 μm | hygroscopicity classification according to the European Pharmacopoeia (EP, version 7.0) [4]: non-hygroscopic; also recorded: not hygroscopic | mass increase by dynamic vapor sorption analysis (hygroscopicity) [4]: 0.04% | mass increase by dynamic vapor sorption analysis (hygroscopicity) ([4]; listed as polymorph II): 0.04% | Change In Mass (%) Desorption ([4]; Cycle 1, target RH 0.0%): −0.03351% | Change In Mass (%) Desorption ([4]; Cycle 1, target RH 10.0%): −0.01706% | Change In Mass (%) Desorption ([4]; Cycle 1, target RH 20.0%): −0.00684% | Change In Mass (%) Desorption ([4]; Cycle 1, target RH 30.0%): 0.00031% | Change In Mass (%) Desorption ([4]; Cycle 1, target RH 40.0%): 0.00692% | Change In Mass (%) Hysteresis ([4]; Cycle 1, target RH 40.0%): 0.00707% | Change In Mass (%) Sorption ([4]; Cycle 1, target RH 40.0%): −0.00015% | Change In Mass (%) Desorption ([4]; Cycle 1, target RH 50.0%): 0.01476% | Change In Mass (%) Hysteresis ([4]; Cycle 1, target RH 50.0%): 0.00868% | Change In Mass (%) Sorption ([4]; Cycle 1, target RH 50.0%): 0.00607% | Change In Mass (%) Desorption ([4]; Cycle 1, target RH 60.0%): 0.02244% | Change In Mass (%) Hysteresis ([4]; Cycle 1, target RH 60.0%): 0.00892% | Change In Mass (%) Sorption ([4]; Cycle 1, target RH 60.0%): 0.01353% | Change In Mass (%) Desorption ([4]; Cycle 1, target RH 70.0%): 0.03051% | Change In Mass (%) Hysteresis ([4]; Cycle 1, target RH 70.0%): 0.00892% | Change In Mass (%) Sorption ([4]; Cycle 1, target RH 70.0%): 0.0216% | Change In Mass (%) Desorption ([4]; Cycle 1, target RH 80.0%): 0.04181% | Change In Mass (%) Hysteresis ([4]; Cycle 1, target RH 80.0%): 0.0043% | Change In Mass (%) Sorption ([4]; Cycle 1, target RH 80.0%): 0.0375% | Change In Mass (%) Desorption ([4]; Cycle 1, target RH 90.0%): 0.05802% | Change In Mass (%) Sorption ([4]; Cycle 1, target RH 90.0%): 0.05802% | Change In Mass (%) Sorption ([4]; Cycle 2, target RH 0.0%): −0.03351% | Change In Mass (%) Sorption ([4]; Cycle 2, target RH 10.0%): −0.0229% | Change In Mass (%) Sorption ([4]; Cycle 2, target RH 20.0%): −0.01545% | Change In Mass (%) Sorption ([4]; Cycle 2, target RH 30.0%): −0.00907% | Change In Mass (%) Sorption ([4]; Cycle 2, target RH 40.0%): −0.00261% | Change In Mass (%) Sorption ([4]; Cycle 2, target RH 50.0%): 0.00277% | Change In Mass (%) Sorption ([4]; Cycle 2, target RH 60.0%): 0.01068% | Change In Mass (%) Sorption ([4]; Cycle 2, target RH 70.0%): 0.01821% | Change In Mass (%) Sorption ([4]; Cycle 2, target RH 80.0%): 0.03189% | Change In Mass (%) Sorption ([4]; Cycle 2, target RH 90.0%): 0.04819% | stability / XRPD pattern after DVS analysis [4]: showed stability after DVS analysis

OCc1cc([C@@H](O)CNCCCCCCOCCOCc2c(Cl)cccc2Cl)ccc1O [form IV, vilanterol trifenatate]
EGA ([5]; listed as Form 4): Cyclohexane | TGA overall weight loss ([5]; listed as Form 4): overall loss of 40% w/w/ | DSC (onset) endo. degradation ([6]; listed as Form 4): endo. 189 °C degradation | DSC (onset) endo. melting ([6]; listed as Form 4): endo. 76 °C melting | Stability test (exposed sample 16 h) ([7]; listed as Form 4): Form 2 | Stability test (sealed vial 18 h) ([8]; listed as Form 4): Form 12

OCc1cc([C@@H](O)CNCCCCCCOCCOCc2c(Cl)cccc2Cl)ccc1O [form V, vilanterol trifenatate]
EGA ([5]; listed as Form 5): Methylcyclohexane | DSC (onset) endo. Form 1 melting ([6]; endothermic event: Form 1 melting, listed as Form 5): endo. 134 °C Form 1 | DSC (onset) endo. degradation ([6]; listed as Form 5): endo. 188 °C degradation | DSC (onset) endo. solvent loss ([6]; listed as Form 5): endo. 55-100 °C solvent loss | Stability test (exposed sample 16 h) ([7]; listed as Form 5): Form 2 | Stability test (sealed vial 18 h) ([8]; listed as Form 5): Strong crystanllinity

OCc1cc([C@@H](O)CNCCCCCCOCCOCc2c(Cl)cccc2Cl)ccc1O [form XIII, vilanterol trifenatate]
TGA overall weight loss ([5]; listed as Form 13): One loss of 34% w/w | DSC (onset) endo. degradation ([6]; listed as Form 13): endo. 189 °C | DSC (onset) endo. melting ([6]; listed as Form 13): endo. 105 °C | DSC (onset) exo. recrystallization ([6]; exothermic event: recrystallization): exo. 93 °C | Stability test (exposed sample 16 h) ([7]; listed as Form 13): Form 12 | Stability test (sealed vial 18 h) ([8]; listed as Form 13): Form 12 (almost

OCc1cc([C@@H](O)CNCCCCCCOCCOCc2c(Cl)cccc2Cl)ccc1O [form XIV, vilanterol trifenatate]
EGA ([5]; listed as Form 14): Methylcyclohexane | TGA overall weight loss ([5]; listed as Form 14): loss of 26% w/w | DSC (onset) endo. solvent loss + melting ([6]; endothermic event: solvent loss + melting (Form 6: + Form 2 melting; Form 14: + Form 3 melting), listed as Form 14): endo. 80 °C solvent | DSC (onset) endo. solvent loss ([6]; listed as Form 14): endo. 58 °C solvent loss | Stability test (exposed sample 16 h) ([7]; listed as Form 14): Form 3 | Stability test (sealed vial 18 h) ([8]; listed as Form 14): Form 3 (almost
